Measurements taken from ChEMBL document CHEMBL1795312, “Insights into the structural requirements of farnesyltransferase inhibitors as potential anti-tumor agents based on 3D-QSAR CoMFA and CoMSIA models” (Eur J Med Chem, 2008).

experiment: Inhibition of farnesyltransferase

pIC50 | Structure (SMILES)
8.45 | Cn1cncc1C(OCc1ccc(C#N)c(N2CCC(O)C2)n1)c1ccc(C#N)c(-c2ccccc2C(F)(F)F)c1 (stereo not given)
7.2 | Cc1ccccc1-c1cc(C(OCc2ccccc2C#N)c2cncn2C)ccc1C#N (stereo not given)
7.72 | Cc1ccccc1-c1cc(C(OCc2cccc(Cl)c2)c2cncn2C)ccc1C#N (stereo not given)
7.08 | CSc1ncccc1C(=O)N1CCC(NCc2cncn2Cc2ccc(C#N)cc2)C1=O (stereo not given)
7.56 | Cc1ccccc1-c1cc(C(OCc2ccc(Cl)c(Cl)c2)c2cncn2C)ccc1C#N (stereo not given)
8.04 | Cn1cncc1C(OCc1ccc(C#N)c(NCCc2ccccc2)n1)c1ccc(C#N)c(-c2ccccc2C(F)(F)F)c1 (stereo not given)
8.25 | Cn1cncc1C(OCc1ccc(C#N)cc1)c1ccc(C#N)c(-c2ccccc2CO)c1 (stereo not given)
8.88 | CC(=O)c1ccc(-c2cc(C#N)ccc2COCc2cncn2Cc2ccc(C#N)cc2)cc1
8.36 | N#Cc1ccc(Cn2cncc2COCc2cnc(C#N)cc2-c2cccc(Cl)c2)cc1
6.96 | N#Cc1ccc(Cn2cncc2CNC2CCN(C(=O)c3ccccc3)C2=O)cc1 (stereo not given)
9.69 | Cn1cncc1C(OCc1ccc(C#N)cc1)c1ccc(C#N)c(-c2cccc3ccccc23)c1 (stereo not given)
7.92 | Cc1ccccc1-c1cc(C(OCc2ccc(C(F)(F)F)cc2)c2cncn2C)ccc1C#N (stereo not given)
9.03 | N#Cc1ccc(Cn2cncc2COCc2ccc(C#N)cc2-c2ccc3ccccc3c2)cc1
7.09 | Cc1ccccc1-c1cc(C(OCc2c(Cl)cccc2Cl)c2cncn2C)ccc1C#N (stereo not given)
7.88 | CC(=O)Nc1cccc(-c2cc(C#N)ccc2COCc2cncn2Cc2ccc(C#N)cc2)c1
8.88 | Cn1cncc1C(OCc1ccc(C#N)c(N2CCN(CCO)CC2)n1)c1ccc(C#N)c(-c2ccccc2C(F)(F)F)c1 (stereo not given)
7.29 | Cc1ccccc1-c1cc(C(OCc2ccc(C(C)C)cc2)c2cncn2C)ccc1C#N (stereo not given)
7.48 | Cc1ccccc1-c1cc(C(OCc2ccccc2[N+](=O)[O-])c2cncn2C)ccc1C#N (stereo not given)
6.92 | N#Cc1ccc(Cn2cncc2CCN[C@@H]2CCN(c3ccccc3)C2=O)cc1
7.26 | Cc1ccc(COC(c2ccc(C#N)c(-c3ccccc3C)c2)c2cncn2C)cc1 (stereo not given)
7.07 | Cc1ccccc1-c1cc(C(OCc2ccccc2)c2cncn2C)ccc1C#N (stereo not given)
8.88 | N#Cc1ccc(Cn2cncc2COCc2ccc(C#N)cc2-c2cccc3ccccc23)cc1
8.88 | Cn1cncc1C(OCc1ccc(C#N)c(N2CCCC(O)C2)n1)c1ccc(C#N)c(-c2ccccc2C(F)(F)F)c1 (stereo not given)
9.49 | N#Cc1ccc(OCc2cncn2Cc2ccc(C#N)c(-c3cccc4ccccc34)c2)cc1

pIC50 | Structure (SMILES)
6.42 | N#Cc1ccc(Cn2cncc2CCN[C@@H]2CCN(CCc3ccccc3)C2=O)cc1
8.32 | CCSc1ncccc1C(=O)N1CCC(NCc2cncn2Cc2ccc(C#N)cc2)C1=O (stereo not given)
8.74 | Cn1cncc1C(OCc1ccc(C#N)c(N2CCC(CO)CC2)n1)c1ccc(C#N)c(-c2ccccc2C(F)(F)F)c1 (stereo not given)
8.08 | N#Cc1ccc(Cn2cncc2CNC2CCN(c3cccc(Cl)c3)C2=O)cc1 (stereo not given)
7.31 | Cc1ccccc1-c1cc(C(OCc2ccccc2Cl)c2cncn2C)ccc1C#N (stereo not given)
7.49 | Cc1ccccc1-c1cc(C(OCc2ccc(F)cc2)c2cncn2C)ccc1C#N (stereo not given)
8.21 | Cn1cncc1C(OCc1ccc(C(F)(F)F)c(F)c1)c1ccc(C#N)c(-c2ccccc2C(F)(F)F)c1 (stereo not given)
8.12 | N#Cc1ccc(Cn2cncc2CN(CCCN)C2CCN(Cc3cccc(Cl)c3)C2=O)cc1 (stereo not given)
5.7 | N#Cc1ccc(Cn2cncc2CNC2CCN(C(=O)c3cccnc3)C2=O)cc1 (stereo not given)
7.82 | Cc1ccccc1-c1cc(C(OCc2cnc(Cl)c(Cl)c2)c2cncn2C)ccc1C#N (stereo not given)
8.88 | Cn1cncc1C(OCc1ccc(C#N)c(N2CCOCC2)n1)c1ccc(C#N)c(-c2ccccc2C(F)(F)F)c1 (stereo not given)
7.88 | Cc1ccccc1-c1cc(C(OCc2ccc(-c3ccccc3)cc2)c2cncn2C)ccc1C#N (stereo not given)
9.2 | N#Cc1ccc(Cn2cncc2COCc2ccc(Cl)cc2-c2cccc(Cl)c2)cc1
8.52 | N#Cc1ccc(COCc2cncn2Cc2ccc(C#N)nc2)c(-c2ccc3c(c2)OCO3)c1
6.61 | N#Cc1ccc(Cn2cncc2CCN[C@H]2CCN(CCc3ccccc3)C2=O)cc1
7.13 | N#Cc1ccc(Cn2cncc2CN[C@H]2CCN(c3ccccc3)C2=O)cc1
8 | Cn1cncc1C(OCc1ccc(C#N)c(NCc2cccc(F)c2)n1)c1ccc(C#N)c(-c2ccccc2C(F)(F)F)c1 (stereo not given)
8.89 | CC(C)(C)OC(=O)NCCCN(Cc1cncn1Cc1ccc(C#N)cc1)C1CCN(Cc2cccc(Cl)c2)C1=O (stereo not given)
7.69 | Cc1ccccc1-c1cc(C(OCc2cccc(I)c2)c2cncn2C)ccc1C#N (stereo not given)
7.38 | N#Cc1ccc(Cn2cncc2CN(CCCCc2ccccc2)C2CCN(Cc3ccccc3)C2=O)cc1 (stereo not given)
9.09 | N#Cc1ccc(Cn2cncc2COCc2ccc(C#N)cc2-c2cccc3c2OCO3)cc1
5.17 | N#Cc1ccc(Cn2cncc2CNC2CCN(C(=O)c3cccnc3O)C2=O)cc1 (stereo not given)
6.55 | N#Cc1ccc(Cn2cncc2CCN[C@H]2CCN(c3ccccc3)C2=O)cc1
8.69 | Cn1cncc1C(OCc1ccc(C#N)c(N2CCC[C@@H]2CO)n1)c1ccc(C#N)c(-c2ccccc2C(F)(F)F)c1 (stereo not given in full)

pIC50 | Structure (SMILES)
9.35 | CC(C)(C)c1ccc(-c2cc(C#N)ccc2COCc2cncn2Cc2ccc(C#N)cc2)cc1
7.15 | Cc1ccccc1-c1cc(C(OCc2ccccc2F)c2cncn2C)ccc1C#N (stereo not given)
8.76 | CC(=O)NC1CCN(c2nc(COC(c3ccc(C#N)c(-c4ccccc4C(F)(F)F)c3)c3cncn3C)ccc2C#N)C1 (stereo not given)
8.32 | N#Cc1ccc(Cn2cncc2COCc2ccc(C#N)cc2-c2ccc3c(c2)OCO3)nc1
7.37 | N#Cc1ccc(Cn2cncc2CNC2CCN(c3ccncc3)C2=O)cc1 (stereo not given)
7.88 | Cc1ccccc1-c1cc(C(OCc2ccc(I)cc2)c2cncn2C)ccc1C#N (stereo not given)
7.88 | Cc1ccccc1-c1cc(C(OCc2cc(Cl)nc(Cl)c2)c2cncn2C)ccc1C#N (stereo not given)
7.22 | Cc1ccccc1-c1cc(C(OCc2cccc3cccnc23)c2cncn2C)ccc1C#N (stereo not given)
7.17 | N#Cc1ccc(Cn2cncc2CN(Cc2ccccc2)C2CCN(Cc3ccccc3)C2=O)cc1 (stereo not given)
8.08 | N#Cc1ccc(COCc2cncn2Cc2ccc(Cl)cc2)c(-c2ccc3c(c2)OCO3)c1
8.12 | Cc1ccccc1-c1cc(C(OCc2ccc([N+](=O)[O-])cc2)c2cncn2C)ccc1C#N (stereo not given)
7.26 | Cc1ccccc1COC(c1ccc(C#N)c(-c2ccccc2C)c1)c1cncn1C (stereo not given)
7.21 | COC(=O)c1cccc(COC(c2ccc(C#N)c(-c3ccccc3C)c2)c2cncn2C)c1 (stereo not given)
7.07 | N#Cc1ccc(Cn2cncc2CNC2CCN(c3cccnc3)C2=O)cc1 (stereo not given)
8.76 | N#Cc1ccc(Cn2cncc2COCc2ccc(C#N)cc2-c2cccc(Cl)c2)nc1
8.17 | Cn1cncc1C(OCc1ccc(C#N)c(NCC2CCCO2)n1)c1ccc(C#N)c(-c2ccccc2C(F)(F)F)c1 (stereo not given)
6.63 | N#Cc1ccc(Cn2cncc2CN[C@H]2CCN(CCc3ccccc3)C2=O)cc1
7.92 | Cc1ccccc1-c1cc(C(OCc2ccc(Br)cc2)c2cncn2C)ccc1C#N (stereo not given)
7.42 | Cc1ccccc1-c1cc(C(OCc2cccc(F)c2)c2cncn2C)ccc1C#N (stereo not given)
6.69 | N#Cc1ccc(Cn2cncc2CN[C@@H]2CCN(c3ccccc3)C2=O)cc1
8.82 | COc1cccc(-c2cc(C#N)ccc2COCc2cncn2Cc2ccc(C#N)nc2)c1
9.22 | Cc1ccc(-c2cc(C#N)ccc2COCc2cncn2Cc2ccc(C#N)cc2)cc1C
8.11 | Cn1cncc1C(OCc1ccc(C#N)c(NCC2CCOC2)n1)c1ccc(C#N)c(-c2ccccc2C(F)(F)F)c1 (stereo not given)
8.82 | N#Cc1ccc(Cn2cncc2CNC2CCN(c3ccccc3Cl)C2=O)cc1 (stereo not given)

pIC50 | Structure (SMILES)
8.52 | N#Cc1ccc(COCc2cncn2Cc2ccc(C#N)nc2)c(-c2cccc(Cl)c2)c1
7.72 | Cc1ccccc1-c1cc(C(OCc2cc(Cl)cc(Cl)c2)c2cncn2C)ccc1C#N (stereo not given)
9.43 | N#Cc1ccc(Cn2cncc2COCc2ccc(C#N)cc2-c2cccc(Cl)c2)cc1
7.19 | N#Cc1ccc(Cn2cncc2CNC2CCN(C(=O)c3ccccc3Cl)C2=O)cc1 (stereo not given)
8.35 | COc1cccc(-c2cc(C#N)ccc2COCc2cncn2Cc2ccc(C#N)cn2)c1
8.58 | CC(=O)N1CCN(c2nc(COC(c3ccc(C#N)c(-c4ccccc4C(F)(F)F)c3)c3cncn3C)ccc2C#N)CC1 (stereo not given)
8.82 | Cn1cncc1C(OCc1ccc(C#N)cc1)c1ccc(C#N)c(-c2cccc(Cl)c2Cl)c1 (stereo not given)
8.36 | N#Cc1ccc(Cn2cncc2COCc2ccc(C#N)cc2-c2ccc(C(F)(F)F)cc2)cc1
7.37 | N#Cc1ccc(Cn2cncc2CNC2CCN(C(=O)c3cncc(Br)c3)C2=O)cc1 (stereo not given)
7.28 | N#Cc1ccc(Cn2cncc2CN(c2ccccn2)C2CCN(Cc3ccccc3)C2=O)cc1 (stereo not given)
8.92 | CN1CCN(c2nc(COC(c3ccc(C#N)c(-c4ccccc4C(F)(F)F)c3)c3cncn3C)ccc2C#N)CC1 (stereo not given)
6.82 | COc1ncccc1C(=O)N1CCC(NCc2cncn2Cc2ccc(C#N)cc2)C1=O (stereo not given)
8.04 | COC(=O)c1ccc(COC(c2ccc(C#N)c(-c3ccccc3C(F)(F)F)c2)c2cncn2C)nc1 (stereo not given)
8.39 | Cc1ccccc1-c1cc(C(OCc2ccc(C#N)cc2)c2cncn2C)ccc1C#N (stereo not given)
7.68 | N#Cc1ccc(Cn2cncc2CNC2CCN(c3ccc(Cl)cc3)C2=O)cc1 (stereo not given)
7.76 | Cc1ccccc1-c1cc(C(OCc2cccc3ccccc23)c2cncn2C)ccc1C#N (stereo not given)
9.23 | CCOc1cccc(-c2cc(C#N)ccc2COCc2cncn2Cc2ccc(C#N)nc2)c1
6.56 | N#Cc1ccc(Cn2cncc2CCN[C@H]2CCN(Cc3ccccc3)C2=O)cc1
9.42 | N#Cc1ccc(Cn2cncc2COc2ccc(C#N)c(-c3cccc4ccccc34)c2)cc1
8.76 | Cn1cncc1C(OCc1ccc(Cl)c(Cl)c1)c1ccc(C#N)c(-c2ccccc2C(F)(F)F)c1 (stereo not given)
9.18 | N#Cc1ccc(Cn2cncc2COCc2ccc(C#N)cc2-c2ccc(OC(F)(F)F)cc2)cc1
8.11 | COc1ccc(-c2cc(C#N)ccc2COCc2cncn2Cc2ccc(C#N)cc2)cn1
7.05 | N#Cc1ccc(Cn2cncc2CNC2CCN(C(=O)c3ccc(Cl)cc3)C2=O)cc1 (stereo not given)
